Assay in all cases: NCI anticancer screen, dose series, 48 h
Assay [1] deals with SF-539 CNS.
Assay [2] concerns 786-0 renal.
Assay [3] deals with T-47D breast.
The test system of assay [4] is CAKI-1 renal.
Assay [5] concerns NCI-H522 lung.
The subject of assay [6] is SK-MEL-28 melanoma.
Assay [7] relates to TK-10 renal.
Assay [8] deals with HOP-62 NSCLC.

Values joined by “and” are separate entries in the source; they are usually repeats but may differ in a detail not shown here. Equal entries are not always repeated.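 Where inhibition never reached the appropriate level, the endpoint shown equals the highest concentration tested. Otherwise, values were interpolated linearly from a five-concentration, 48-hour dose response in 96-well plates. GI50: concentration for 50% inhibition of growth. TGI denotes the concentration required for complete inhibition of growth.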

As to `C(=N\Nc1ccc2ccccc2n1)/c1ccccn1`, the GI50 in assay [1] is 0.362 µM; in assay [2], 0.317 µM; in assay [3], 0.574 µM; in assay [4], 0.257 µM; in assay [5], 0.319 µM; in assay [6] it was 1.96 µM. Besides, the values for the GI50 in assay [7] and in assay [8] were 0.375 µM and 0.431 µM, respectively. The TGI in assay [1] is 6.83 µM; in assay [3], 38.5 µM; in assay [4] it was 0.763 µM; in assay [5], 11.8 µM; in assay [6], greater than 100 µM; in assay [7] it was greater than 100 µM. The molecule further yielded a TGI in assay [8] of 6.98 µM.
Take `NS(=O)(=O)c1ccc(N=Nc2c[nH]c(=O)c(O)c2)cc1`: the TGI is greater than 100 µM in assay [1]; greater than 100 µM in assay [2]; greater than 100 µM in assay [3]; greater than 100 µM in assay [4]; 28.6 µM in assay [5]; greater than 100 µM in assay [6]. Further, the TGI in assay [7] and in assay [8] was greater than 100 µM in each case.
`CC1=C[C@@H]2c3c(c(O)c(O)c4oc5cc(O)cc(O)c5c(=O)c34)[C@@H](c3cc(O)c(O)c4oc5cc(O)cc(O)c5c(=O)c34)[C@@H]2C(C)(C)C1`: the GI50 is 4.7 µM in assay [1]; 2.69 µM in assay [2]; 4.6 µM in assay [3]; 3.93 µM in assay [4]; 2.9 µM in assay [5]; 5.64 µM in assay [6]. Also, the GI50 in assay [7] was 5.85 µM; in assay [8], 3 µM. In addition, the TGI is 17.2 µM in assay [1]; 11.5 µM in assay [2]; 19.2 µM in assay [3]; 14 µM in assay [4]; 12.1 µM in assay [5]; 18.7 µM in assay [6]. The values for the TGI in assay [7] and in assay [8] were 19.2 µM and 14.5 µM, respectively.
As for `CSc1nc(SC)c2c(C)cn(COCCOC(=O)c3ccccc3)c2n1`, the TGI in assay [1] is greater than 100 µM; in assay [2], greater than 100 µM; in assay [3], 94.5 µM; in assay [4], greater than 100 µM; in assay [5], greater than 100 µM; in assay [6], greater than 100 µM. Also, the TGI in assay [7] and in assay [8] was greater than 100 µM each time.
For `COc1cc(-c2ccc[nH]2)[nH]c1/C=C1\N=C(C)C(CC(=O)OCC(C)(C)C)=C1C`, the GI50 in assay [1] was 0.357 µM; in assay [2], 0.3 µM; in assay [3], 0.157 µM; in assay [4], 0.263 µM; in assay [5], 0.23 µM; in assay [6], 0.305 µM. The GI50 in assay [7] is 0.326 µM; in assay [8] it was 0.218 µM. Also, the TGI was determined as 1.6 µM in assay [1]; 1.53 µM in assay [2]; 0.887 µM in assay [3]; 1.13 µM in assay [4]; 1.51 µM in assay [5]; 1.34 µM in assay [6]. The TGI in assay [7] was determined as 1.19 µM; in assay [8], 1.38 µM.
As for `Cn1c(I)c(C#C[Si](C)(C)C)c(=O)[nH]c1=O`, the GI50 in assay [1] was 9.28 µM; in assay [2], 16.4 µM; in assay [3], 2.54 µM; in assay [4], 2.76 µM; in assay [5] it was 1.68 µM; in assay [6] it was 1.66 µM. Besides, the GI50 in assay [7] was 7.93 µM; in assay [8], 17.6 µM. The TGI in assay [1] was 21.4 µM; in assay [2], 30.4 µM; in assay [3], 8 µM; in assay [4] it was 9.58 µM; in assay [5] it was 3.18 µM; in assay [6] it was 3.12 µM. Moreover, the TGI in assay [7] came out at 22.8 µM; in assay [8], 32.4 µM.
Regarding `COc1cc(C(=O)O[C@H](C(=O)NCCCCNC(=O)[C@@H](OC(=O)c2cc(OC)cc3c(C)cccc23)[C@]2(C)CO2)[C@]2(C)CO2)c2cccc(C)c2c1`, the GI50 in assay [1] is less than 0.0385 µM; in assay [3], 0.253 µM; in assay [4], 0.0122 µM; in assay [5] it was 0.0207 µM; in assay [6] it was 0.0409 µM; in assay [7] it was 0.469 µM. Besides, the TGI in assay [1] was 0.266 µM; in assay [2] it was 1.25 µM; in assay [3], 1.74 µM; in assay [4] it was 0.0986 µM; in assay [5], 10.9 µM; in assay [6], 50 µM. Moreover, the TGI was 1.36 µM in assay [7] and 0.892 µM in assay [8].
For `CNc1cc(-c2cccc(OC(F)(F)F)c2)nc2ccc(N3CCCC3)cc12`, the GI50 in assay [1] is 1.72 µM and 1.88 µM and 1.78 µM; in assay [2], 1.56 µM and 1.71 µM and 1.55 µM; in assay [3], 1.59 µM and 1.76 µM; in assay [4], 1.57 µM and 1.53 µM and 1.6 µM; in assay [5], 1.68 µM and 1.65 µM and 1.76 µM; in assay [6], 1.64 µM and 1.78 µM and 1.67 µM. Besides, the GI50 in assay [7] is 1.94 µM and 1.78 µM and 1.8 µM; in assay [8] it was 1.62 µM and 1.69 µM and 1.72 µM. For the same molecule, the TGI was 3.19 µM and 3.45 µM and 3.22 µM in assay [1]; 2.91 µM and 3.22 µM and 2.97 µM in assay [2]; 3.51 µM and 3.47 µM in assay [3]; 2.91 µM and 2.88 µM and 2.97 µM in assay [4]; 3.33 µM and 3.25 µM and 3.43 µM in assay [5]; 3.03 µM and 3.2 µM and 3.06 µM in assay [6]. For the same molecule, the TGI in assay [7] was 3.39 µM and 3.2 µM and 3.24 µM; in assay [8], 3.11 µM and 3.16 µM.
Consider `CC(=O)c1c(C)c2cnc(Nc3ccc(N4CCNCC4)cn3)nc2n(C2CCCC2)c1=O`, for which the GI50 was 14.1 µM in assay [1]; 5.04 µM in assay [2]; 14.5 µM in assay [3]; 1.61 µM in assay [4]; 13 µM in assay [5]; 12.3 µM in assay [6]. For the same molecule, the GI50 is 0.533 µM in assay [7] and 12.8 µM in assay [8]. Also, the TGI in assay [1] was 28.3 µM; in assay [2], 20.7 µM; in assay [3], 32.6 µM; in assay [4], 17.2 µM; in assay [5], 27.4 µM; in assay [6], 25.7 µM. The TGI in assay [7] was 16.3 µM; in assay [8], 26.2 µM.
Take `COC(=O)CC1=C(C)/C(=C/c2[nH]c(-c3ccc[nH]3)cc2OC)N=C1C`: the GI50 is 0.331 µM in assay [1]; 0.191 µM in assay [2]; 0.255 µM in assay [3]; 0.231 µM in assay [4]; 0.215 µM in assay [5]; 0.456 µM in assay [6]. For the same molecule, the GI50 in assay [7] is 0.214 µM; in assay [8] it was 0.192 µM. Moreover, the TGI in assay [1] was 2.27 µM; in assay [2] it was 0.723 µM; in assay [3], 1.52 µM; in assay [4] it was 2.34 µM; in assay [5] it was 1.27 µM; in assay [6], 2.53 µM. Moreover, the figures for the TGI in assay [7] and in assay [8] were 3.41 µM and 1.12 µM, respectively.
On to `C=C(C)C(=O)Nc1ccc(-c2c(-c3ccc(Oc4nccc(C)n4)c(F)c3)c3c(N)ncnc3n2C)cc1`, for which the GI50 in assay [1] was 1.88 µM; in assay [2], 2.43 µM; in assay [3], 2.97 µM; in assay [4] it was 1.92 µM; in assay [5], 3.57 µM; in assay [6], 4.38 µM. In addition, the GI50 is 4.98 µM in assay [7] and 4.69 µM in assay [8]. Moreover, the TGI in assay [1] amounted to 8.89 µM; in assay [2], 30.6 µM; in assay [3], 35.5 µM; in assay [4], 8.23 µM; in assay [5], 16.1 µM; in assay [6], 17.6 µM. Besides, the TGI in assay [7] stood at 30 µM; in assay [8] it was 20 µM.
For the molecule `N#CC1=C(N)OC2=C(CCOc3c2ccc2ccccc32)C1c1ccc(Br)cc1` (configuration not stated), the GI50 in assay [1] was greater than 100 µM; in assay [2], 44.9 µM; in assay [3], greater than 100 µM; in assay [4], 15.1 µM; in assay [5], greater than 100 µM; in assay [6], 61.5 µM. Moreover, the GI50 was 21.6 µM in assay [7] and 56.6 µM in assay [8]. The TGI in assay [1] was greater than 100 µM; in assay [2] it was greater than 100 µM; in assay [3], greater than 100 µM; in assay [4] it was 80.6 µM; in assay [5], greater than 100 µM; in assay [6] it was greater than 100 µM. The figures for the TGI in assay [7] and in assay [8] were 61.6 µM and greater than 100 µM, respectively.
For `N=C(CC(=O)Nc1ccccn1)c1ccccc1`, the TGI in assay [1], in assay [2], in assay [3], in assay [4], in assay [5] and in assay [6] was greater than 100 µM each time. Further, the TGI in assay [7] and in assay [8] was greater than 100 µM throughout.
For the molecule `COc1cc(C(=O)n2nc(N)c3c(C)cc(C)nc32)cc(OC)c1OC`, the GI50 in assay [1] was greater than 23.4 µM; in assay [2], greater than 100 µM; in assay [3] it was greater than 65.4 µM; in assay [4], greater than 100 µM; in assay [5] it was 10.8 µM; in assay [6], greater than 100 µM. For the same molecule, the figures for the GI50 in assay [7] and in assay [8] were greater than 100 µM and 40.8 µM, respectively. Further, the TGI in assay [1], in assay [2], in assay [3], in assay [4], in assay [5] and in assay [6] was greater than 100 µM each time. Moreover, the TGI in assay [7] and in assay [8] was greater than 100 µM throughout.

Values taken from PubChem BioAssay (NCI).
